# From patent US11213506B2, “Combination therapy for the treatment or prevention of tumours” (QBIOTICS PTY LTD, priority 2017, dated 2022)
# Tests used:
# A431 cells [1] = experiment: IncuCyte cytotoxicity assay (propidium iodide); assay type: cell-based, human; details: 500 μM; for propidium iodide staining (loss of plasma membrane integrity): after 120 minutes, majority of cells; for cell morphology (cytoplasmic swelling, blistering): differing extents and kinetics of onset
# Procedure: (§1) A431 (human epidermoid carcinoma), MM649 (human melanoma), B16-OVA (B16-F10 mouse melanoma cell line stably transfected with chicken ovalbumin), MM415 (human melanoma) and FaDu (human hypopharyngeal carcinoma) cells were cultured in RPMI-1640, 10% FCS (complete medium) at 37° C., 5% CO2 in a humidified incubator. All cell lines used in this study were confirmed as mycoplasma negative using MycoAlert (Lonza). STR profiling was also performed to confirm the identity of the human cell lines used.
# (§2) Four cancer cell lines (A431, MM649 (human melanoma), FaDu (HNSCC) and MM415 (human melanoma) were assessed for their response to epoxytigliane treatment. Cells were plated at a density of 10,000 cells per well (100 μl of complete media) into clear bottom black 96-well plates (Corning, #3603). Following 24 h incubation, the media within each well was aspirated and replaced with 50 μl of fresh media containing 1 μg/ml propidium iodide (PI). Stock solutions (20 mg/ml in ethanol) of four epoxytiglianes (Compounds 1, 2, 3 and 4) were diluted to 2× final assay concentration (1 mM) in identical media and inserted into a U-bottom 96 well plate in preparation for transfer. 50 μl of dilution was added to the required wells and the resultant plates inserted into an Essen Biosciences IncuCyte in preparation for imaging. Images were acquired at various time points (30 min, 1 h and at hourly intervals) for a total of 24 h.
# FaDu cells = experiment: IncuCyte cytotoxicity assay (propidium iodide); assay type: cell-based, human; details: 500 μM; for propidium iodide staining (loss of plasma membrane integrity): after 120 minutes, majority of cells; for cell morphology (cytoplasmic swelling, blistering): differing extents and kinetics of onset
# Procedure: as §1, §2
# MM415 cells = experiment: IncuCyte cytotoxicity assay (propidium iodide); assay type: cell-based, human; details: 500 μM; for propidium iodide staining (loss of plasma membrane integrity): after 120 minutes, majority of cells; for cell morphology (cytoplasmic swelling, blistering): differing extents and kinetics of onset
# Procedure: as §1, §2
# MM649 cells [2] = experiment: IncuCyte cytotoxicity assay (propidium iodide); assay type: cell-based, human; details: 500 μM; for propidium iodide staining (loss of plasma membrane integrity): after 120 minutes, majority of cells; for cell morphology (cytoplasmic swelling, blistering): differing extents and kinetics of onset
# Procedure: as §1, §2
# A431 cells [3] = experiment: ATP release assay; assay type: cell-based, human; details: both concentrations (500 and 300 μM), within 60 minutes
# Procedure: as §1, with “melanoma) and” for “melanoma),”, “ovalbumin)” for “ovalbumin), MM415 (human melanoma) and FaDu (human hypopharyngeal carcinoma) cells”, “incubator. BMDCs were cultured in R10 media (RPMI, 10% FCS, 2 mM glutamine, 50 μM beta-mercaptoethanol, Pen/Strep).” for “incubator.”
# (§3) Cell lines were plated at a density of 10,000 cells per well into clear 96-well plates (Corning, #3595; 100 μl of complete media) and the resultant plates incubated overnight as previously detailed. The following day, media was aspirated from each well and 50 μl of fresh medium was inserted. Stock solutions of Compounds 1, 2, 3 and 4 were diluted to 2× final assay concentration (1 mM and 600 μM) and 50 μl of these dilutions added to the required wells. Ethanol only control solutions were also compiled and administered. At the indicated timepoints, 80 μl of media was removed, centrifuged at 1,200 rpm for 4 mins to pellet cell debris and 50 μl assayed for ATP using a bioluminescence based ATP assay kit (FLAA, Sigma-Aldrich). Relative luminescence units were recorded for each sample using a Hybrid Synergy H4 plate reader (BioTek).
# MM649 cells [4] = experiment: ATP release assay; assay type: cell-based, human; details: both concentrations (500 and 300 μM), within 60 minutes
# Procedure: as §1, with “melanoma) and” for “melanoma),”, “ovalbumin)” for “ovalbumin), MM415 (human melanoma) and FaDu (human hypopharyngeal carcinoma) cells”, “incubator. BMDCs were cultured in R10 media (RPMI, 10% FCS, 2 mM glutamine, 50 μM beta-mercaptoethanol, Pen/Strep).” for “incubator.”
# as §3
# B16-OVA cells = experiment: ATP release assay; assay type: cell-based, mouse; details: both concentrations (500 and 300 μM), within 60 minutes
# Procedure: as §1, with “melanoma) and” for “melanoma),”, “ovalbumin)” for “ovalbumin), MM415 (human melanoma) and FaDu (human hypopharyngeal carcinoma) cells”, “incubator. BMDCs were cultured in R10 media (RPMI, 10% FCS, 2 mM glutamine, 50 μM beta-mercaptoethanol, Pen/Strep).” for “incubator.”
# as §3
# [5] = test system: CD11c+ BMDCs with B16-OVA cells; experiment: BMDC uptake of epoxytigliane treated B16-OVA cells; assay type: cell-based, C57Bl/6 mice; details: B16-OVA treated at 500 or 300 μM for 30 and 60 mins; 4 h co-culture
# Procedure: The tibias and […] from four 7-8 week old C57Bl/6 mice were first surgically removed under sterile conditions. The marrow was flushed from the bone cavity with 10 ml of ice cold R10 media (using a 27G needle/syringe into a 50 ml polypropylene tube). Cells were pelleted at 1,500 rpm for 5 mins and washed ×2 with ice cold R10 media. After resuspension of the pellet into 10 ml of ice cold R10 medium, cells were counted using an improved haemocytometer and plated at a density of 2×10^6 cells per plate (petri dish) in 10 ml of R10 supplemented with 20 ng/ml murine GM-CSF. All plates were incubated at 37° C., 5% CO2 and at day 3 an additional 10 ml R10 with 20 ng/ml GM-CSF was added. Cells were again fed at day 6 and used for downstream assays on day 7.
# Prior to co-incubation with BMDCs, B16-OVA cells were trypsinised, centrifuged at 1,200 rpm for 4 mins to pellet cells and washed ×2 with complete medium. Cells were then stained with 2 μM Cell Tracker Green in complete medium for 45 mins, after which they were pelleted and washed ×2 as above. Labelled B16-OVA cells were subsequently treated with Compounds 1, 2, 3 and 4 at two concentrations (500 or 300 μM) in media at a density of 1×10^6 cells/ml for 30 and 60 mins, after which cells were pelleted via centrifugation, supernatant removed via aspiration and the cell pellet washed ×1 with complete media. After the wash, the treated cells were resuspended in R10 media, inserted into the wells of a 6-well plate (Corning, #3471. Ultra low attachment surface) and BMDCs added. Co-cultures were incubated for 4 h after which cell suspensions were transferred to a microfuge tube and centrifuged at 1,500 rpm for 5 mins. Pellets were resuspended in 100 μl FACs buffer containing anti-CD11c-APC and incubated for 10 mins at 4° C. Cells were again pelleted, washed ×1 with FACs buffer and then fixed using PBS, 1% formaldehyde for 10 mins. After centrifugation and removal of the supernatant, cells were resuspended in 500 μl FACs buffer in preparation for flow cytometry.
# Samples were first gated by FSC-H v FSC-A, then SSC-H v SS-A to identify single cells. The proportion of CD11c^+ cells (Ex: 640 nm, Em: 670/14) with CMFDAmid (Ex: 488 nm, Em: 530/30) were then determined for treated and untreated cells as a percentage of all CD11c^+ cells.
SMILES,propidium iodide staining (loss of plasma membrane integrity) (A431 cells [1]),"cell morphology (cytoplasmic swelling, blistering) (A431 cells [1])",propidium iodide staining (loss of plasma membrane integrity) (FaDu cells),"cell morphology (cytoplasmic swelling, blistering) (FaDu cells)",propidium iodide staining (loss of plasma membrane integrity) (MM415 cells),"cell morphology (cytoplasmic swelling, blistering) (MM415 cells)",propidium iodide staining (loss of plasma membrane integrity) (MM649 cells [2]),"cell morphology (cytoplasmic swelling, blistering) (MM649 cells [2])",ATP release (A431 cells [3]),ATP release (MM649 cells [4]),ATP release (B16-OVA cells),uptake of dying cancer cell fragments by CD11c+ dendritic cells/macrophages (BMDCs) [5]
"CCC(C)C(=O)OC1C(C)C2(O)C(C3OC3(CO)C(O)C3(O)C(=O)C(C)=CC32)C2C(C)(C)C12OC(=O)C(C)CC (stereo not drawn) [Compound 2, 12,13-di-(2-methylbutanoyl)-6,7-epoxy-4,5,9,12,13,20-hexahydroxy-1-tiglien-3-one]",strong red staining,significant cytoplasmic swelling and ‘blistering’,strong red staining,significant cytoplasmic swelling and ‘blistering’,strong red staining,significant cytoplasmic swelling and ‘blistering’,strong red staining,significant cytoplasmic swelling and ‘blistering’,significant release of ATP,significant release of ATP,significant release of ATP,promotes uptake
"CCCCCC(=O)OC1C(C)C2(O)C(C3OC3(CO)C(O)C3(O)C(=O)C(C)=CC32)C2C(C)(C)C12OC(=O)CCCCC (stereo not drawn) [Compound 4, 12,13-dihexanoyl-6,7-epoxy-4,5,9,12,13,20-hexahydroxy-1-tiglien-3-one]",strong red staining,significant cytoplasmic swelling and ‘blistering’,strong red staining,significant cytoplasmic swelling and ‘blistering’,strong red staining,significant cytoplasmic swelling and ‘blistering’,strong red staining,significant cytoplasmic swelling and ‘blistering’,significant release of ATP,significant release of ATP,significant release of ATP,promotes uptake
"CCCCCC(=O)OC1C(C)C2(O)C(C3OC3(CO)C(O)C3(O)C(=O)C(C)=CC32)C2C(C)(C)C12OC(=O)C(C)CC (stereo not drawn) [Compound 3, 12-hexanoyl-13-(2-methylbutanoyl)-6,7-epoxy-4,5,9,12,13,20-hexahydroxy-1-tiglien-3-one]",strong red staining,significant cytoplasmic swelling and ‘blistering’,strong red staining,significant cytoplasmic swelling and ‘blistering’,strong red staining,significant cytoplasmic swelling and ‘blistering’,strong red staining,significant cytoplasmic swelling and ‘blistering’,significant release of ATP,significant release of ATP,significant release of ATP,promotes uptake
